Measured values taken from patent US4299767A, “Benzodiazepine derivatives” (Hoffmann-La Roche Inc., priority 1978, dated 1981).

What was measured:
[1] = acute toxicity, single oral administration to rats; details: rat, in vivo, p.o.
Excerpt: (§1) The following Table contains results obtained with the aforementioned particularly preferred compounds inhibiting the intestinal resorption of cholesterol. For each of these compounds there are given the dose(s) administered (in μMol/kg p.o) as well as the cholesterol recovery (CHOREC), expressed in % of controls. Moreover, the Table contains data relating to the acute toxicity of the compounds investigated (LD 50 in mg/kg in the case of a single oral administration to rats): […]

[2] = system: intestinal resorption of cholesterol; experiment: inhibition of the intestinal resorption of cholesterol (cholesterol recovery, CHOREC); assay type: in vivo, normal female Fullinsdorf albino rats; details: rats
Protocol: The compounds to be tested are administered to groups of 6 normal female Fullinsdorf albino rats (body weight about 70 g) by oral intubation. This is followed immediately by oral intubation of a test meal containing radioactive cholesterol. Consecutively, feces are collected for three days, freeze dried and pulverized. An aliquot is burned for evaluation of fecal radioactivity. Controls excrete about 40-50% of the dietary radioactive cholesterol called cholesterol recovery (CHOREC) and arbitrarily set 100%. Animals treated with a substance inhibiting the intestinal resorption of cholesterol show a higher excretion of radioactive cholesterol in comparison with controls. The cholesterol recovery (CHOREC) of treated animals is expressed in % of controls.
as §1

SMILES	LD50 [1]	cholesterol recovery (CHOREC), in % of controls ([2]; 10 μMol/kg p.o.)	cholesterol recovery (CHOREC), in % of controls ([2]; 30 μMol/kg p.o.)	cholesterol recovery (CHOREC), in % of controls ([2]; 100 μMol/kg p.o.)	cholesterol recovery (CHOREC), in % of controls ([2]; 300 μMol/kg p.o.)	cholesterol recovery (CHOREC), in % of controls ([2]; 1000 μMol/kg p.o.)
CC1N=C(c2ccccc2F)c2c(ccc(NC(=O)NCCO)c2Br)N(C)C1=O (racemic) [Example 50, rac-1-[6-bromo-5-(o-fluorophenyl)-2,3-dihydro-1,3-dimethyl-2-oxo-1H-1,4-benzodiazepin-7-yl]-3-(2-hydroxyethyl)urea]	> 5000 mg/kg	132%	160%	155%	169%	189%
CN1C(=O)CN=C(c2ccccc2F)c2c1ccc(NC(=O)N1CCOCC1)c2Cl [Example 51, N-[6-chloro-5-(o-fluorophenyl)-2,3-dihydro-1-methyl-2-oxo-1H-1,4-benzodiazepin-7-yl]-4-morpholinecarboxamide]	1250 to 2500 mg/kg					186%
